Data published in US7879821B2, “Method for modulating inflammatory responses by altering plasma lipid levels” (University of Medicine and Dentistry of New Jersey, priority 2006, dated 2011).
Entries after “also recorded” stand apart in the source; their conditions may differ. Each block holds one compound with its values, some of them ahead of it.

Assays:
[1] = test system: human PMN; assay: PAF mediated SOCE in human PMN; format: cell-based
[2] = test system: PMN lipid raft fractions; assay: Cholesterol content of PMN lipid raft fractions isolated by ultracentrifugation; format: cell-based, human; details: for ratio of cholesterol to protein / cholesterol concentration in the lowest density raft fractions: PMN pretreated, micromolar concentrations, absence of albumin; for change of cholesterol in raft fractions versus higher density fractions: cholesterol 10 μg/ml 10 minutes or MβCD 10 μM/10 min
[3] = test system: TRPC1; assay: Western blotting for TRPC1 in PMN raft fractions; format: cell-based, human; details: for global TRPC1 protein expression in whole cell lysates: 10 minutes exposure
Method: TRPC1 is a prototypic calcium channel protein of the TRP family. PMN express multiple TRPC proteins that are known to traffic to the cell membrane during Ca entry. We therefore studied TRPC1 raft-trafficking in response to cholesterol as an initial proof of principle that raft cholesterol concentration might regulate the distribution of multiple Ca^2+-influx related proteins to or from the cell membrane. We analyzed 20 μl of each gradient fraction by electrophoresis on a SDS gel followed by Western blotting for TRPC1 protein. The primary rabbit anti-human TRPC1 antibody (Santa Cruz) was used at 1:1,600 dilution. Secondary goat anti-rabbit antibody was used at 1:16,000 dilution. An ECL Western blotting detection kit was used to develop the blots which were imaged as above.
We therefore used Western blots to probe for TRPC1 in fractions 2-4 of pooled normal volunteer PMN fractionated with or without prior incubation in 10 μg/mL cholesterol (FIG. 26).
Subsequently, we sought to determine the source of the increased TRPC1 in the lipid raft fractions. Whole cell lysates from cholesterol treated and untreated cells were compared (not shown). […] Since the events leading to calcium entry are very rapid, later time points were not studied. Finally, we assayed TRPC1 in individual raft fractions from concurrently treated and analyzed PMN specimens (FIG. 27). […] Thus a redistribution of TRPC1 occurs in response to cholesterol treatment which appears to reflect trafficking of the protein to raft fractions rather than de novo synthesis.

[4] = test system: PMN; assay: fMLP-mediated Ca2+ entry in PMN; format: cell-based, human
Method: (§1) PMN were suspended in HEPES buffer with 1 mM CaCl2 and 0.1% BSA and incubated with 2 μg/mL fura-2AM for 30 minutes in the dark at 37° C. Cells were divided into aliquots (2×10^6 PMN) and placed on ice in the dark. Prior to study, samples were warmed to 37°, centrifuged (4500 RPM, 5 sec) and supernatants removed. Pellets were resuspended in 200 μl of BSA-free and ‘nominally calcium-free’ HEPES buffer (with 0.3 mM EGTA) and finally injected into cuvettes containing 2.8 mL of the same buffer for study. Intracellular free calcium concentration ([Ca2+]i) was determined from the fluorescence at 505 nm using 340/380 nm dual wavelength excitation. (Fluoromax-2, Jobin-SPEX, Edison, N.J.).
To confirm that the effects of cholesterol on GPCR mediated Ca^2+ entry were generalized and not restricted to PAF we evaluated the effects of cholesterol on fMLP-mediated Ca^2+ entry. Consistent with PAF, fMLP-linked Ca^2+ entry responses were suppressed by MβCD and augmented by cholesterol (FIG. 23, upper panel).

[5] = test system: human neutrophils (PMN); assay: Cholesterol-mediated Ca2+ influx in human PMN (fura-2 calcium spectrofluorometry); format: cell-based; details: for effect of calcium channel blocker on cholesterol-mediated PMN calcium entry: dose response curves not shown; for effect on cholesterol mediated Ca2+ influx (actin reorganization): Caly A 50 nM in cuvette, Cyto D pretreatment 2.5 uM 15 min, cholesterol 10 ug/ml
[6] = test system: PMN; assay: Calcium-entry dependent respiratory burst (RB) initiated by fMLP/Tg in PMN; format: cell-based, human; details: for effect of cholesterol depletion on fMLP/Tg RB: MBCD 10 mM/10 min, fMLP/TG 100 nM/1 uM
Method: The graph represents Vmax slopes values. n=2 for Blank, Cholesterol Blank and Cholesterol alone. The others are n=6.
RB was assessed in PMN suspensions. Briefly, 2×10^6 PMN were suspended in 3 ml of HEPES buffer with 0.1% BSA and 15 ng/ml of 1,2,3-dihydrorhodamine (DHR) added. Cells were studied at 37° C. with constant stirring using excitation at 488 nm and emission at 530 nm. RB was allowed to become linear and achieve maximal reaction rate (Vmax). The fluorescent intensity (FI) curve of oxidized DHR was compiled for 60 seconds during Vmax. Curve-fitting analysis was performed over the linear portion (Sigma-Plot 4.0, SPSS, Chicago, Ill.). Vmax was assessed as the first derivative of the fluorescent intensity in counts per second (CPS).
Next we evaluated the functional relevance of cholesterol-mediated Ca^2+ influx. We studied a PMN model where RB depends entirely on extra-cellular calcium entry to see if RB would vary with the incorporation of cholesterol into rafts.
To do this, PMN were pre-incubated with MβCD, with vehicle or with varying concentrations of cholesterol to vary membrane raft cholesterol content (FIG. 21B). After the pre-incubation, RB was initiated using fMLP/Tg.

[7] = test system: PMN; assay: PMN calcium entry responses to S1P; format: cell-based, human
Method: To evaluate whether Ca^2+-entry responses to S1P were raft dependent, we then disrupted lipid rafts using MBCD to bind raft cholesterol.
as §1

[8] = test system: PMN lipid rafts (GM-1); assay: Immunofluorescent microscopy for GM-1 (FITC-CTB) in PMN rafts; format: cell-based, human; details: free cholesterol 10 μg/mL
[9] = test system: PMN; assay: Thapsigargin (TG) initiated Ca2+ entry in PMN; format: cell-based, human
Method: as §1
Since cholesterol had no discernable effect on ER Ca^2+ store release in response to PAF we examined the possibility that could play a direct role in the regulation of store-operated Ca^2+ entry; a Ca^2+ entry mechanism that is completely independent of GPCR activation. To study this we used thapsigargin (TG). TG blocks ER Ca^2+ ATPase pumps, thus depleting ER Ca^2+ stores directly and causing calcium entry independent of GPCR activation.

[10] = test system: PMN; assay: Store-operated calcium entry (SOCE) initiated by fMLP and Tg in PMN; format: cell-based, human
Method: We hypothesized that calcium-entry dependent functions like RB would depend upon S1P synthesis and subsequent S1P interactions with rafts. Thus we developed a calcium-entry dependent RB model where Ca entry was manipulated by sphingosine kinase (SphK) inhibition, which inhibits S1P synthesis in response to internal calcium store release. […] Note that the vast majority of cell [Ca^2+] increases are due to calcium influx on re-calcifying the medium.
as §1

[11] = fMLP/Tg RB after pre-incubation

Compound: CC(C)CCC[C@@H](C)[C@H]1CC[C@H]2[C@@H]3CC=C4C[C@@H](O)CC[C@]4(C)[C@H]3CC[C@]12C [cholesterol]
effect on release of Ca2+ from cell stores (PAF) ([1]; PAF 100 nM): no effect upon Ca^2+ store mobilization
effect of cholesterol present in cuvette on PAF Ca2+ entry in normal cells ([1]; normal PMN, brief exposure): increased Ca^2+ entry
rescue of PAF Ca2+ entry by cholesterol after MβCD ([1]; small amounts of cholesterol (3 ug/ml final)): rescued Ca^2+entry
ratio of cholesterol to protein / cholesterol concentration in the lowest density raft fractions [2]: more than doubles
change of cholesterol in raft fractions versus higher density fractions [2]: incorporated preferentially into the low density fractions
global TRPC1 protein expression in whole cell lysates [3]: No differences in global TRPC1 protein expression
TRPC1 protein in membrane lipid raft fractions ([3]; pre-incubation in 10 μg/mL cholesterol): increases the amount of TRPC1 protein; also recorded: redistribution of the TRPC1 signal from higher density fractions into the raft fractions
effect on fMLP-linked Ca2+ entry responses [4]: augmented
effect of very high cholesterol concentrations on fMLP-mediated Ca2+ entry ([4]; very high cholesterol concentrations): suppressed calcium entry
effect of cholesterol concentrations above 10 μg/mL on PMN Ca2+ uptake ([5]; above 10 μg/mL, direct stimulation and combination with S1P): suppress PMN Ca^2+ uptake
direct calcium entry caused by cholesterol at re-addition dose ([5]; cholesterol 3 ug/ml final): does not itself cause calcium entry
direct effect of cholesterol on calcium entry into human PMN ([5]; free cholesterol, albumin-free media): caused Ca entry without any antecedent release of calcium stores; also recorded: potent, dose-dependent activator; also recorded: direct dose-related response
rescue of RB by cholesterol in MBCD treated neutrophils ([6]; cholesterol 30 ug/ml): rescued RB from MβCD inhibition; also recorded: significantly rescued that RB
external cholesterol concentration yielding optimal PMN oxidant production [6, 11]: 10 µg/mL
external cholesterol concentration yielding optimal PMN oxidant production (molar) [6, 11]: ~25 µM
effect of increasing (high) cholesterol concentrations on RB ([6]; pre-incubation, higher concentrations (FIG. 21B columns 6-7)): decreased the degree of respiratory burst
effect of lower cholesterol concentrations on RB ([6]; pre-incubation, lower concentrations (FIG. 21B columns 3-5)): dose-dependent augmentation of RB
effect of cholesterol on patient PMN calcium entry response to S1P ([7]; injured patients' PMN, cholesterol 30 ug/ml, n=8 PMN isolates): restored to healthy volunteer levels; also recorded: exceed basal levels
reversal of MβCD effect on S1P calcium entry by cholesterol replenishment ([7]; n=3): reversible; also recorded: reversal of the MβCD effect
membrane GM-1 binding and raft coalescence [8]: increased membrane GM-1 available for binding
reversal of MβCD inhibition of TG Ca2+ entry by cholesterol re-addition [9]: immediately reversed and even overcome

Compound: [La+3] [La^3+, lanthanum]
inhibition of cholesterol mediated PMN Ca2+ influx by lanthanum ([5]; 1 mM): inhibited; also recorded: almost totally inhibits

Compound: COc1ccc(CCN(C)CCCC(C#N)(c2ccc(OC)c(OC)c2)C(C)C)cc1OC (centres unmarked) [verapamil]
effect of calcium channel blocker on cholesterol-mediated PMN calcium entry ([5]; human PMN): not inhibited; also recorded: no effect
effect of calcium channel blocker on cholesterol-mediated PMN calcium entry ([5]; human PMN, listed as VER): no effect at any concentration

Compound: COC[C@@H]([C@H](O)[C@H](O)C(=O)NCC[C@H](C)c1nc(/C=C/C[C@@H]2O[C@]3(C[C@@H](O)[C@@H]2C)O[C@H]([C@H](C[C@H](O)[C@H](C)[C@H](O)[C@H](C)/C=C(C)/C(C)=C/C=C/C(C)=C\C#N)OC)[C@H](OP(=O)(O)O)C3(C)C)co1)N(C)C [CalyA, Calyculin A]
effect on cholesterol mediated Ca2+ influx (actin reorganization) [5]: abolished

Compound: methyl-β cyclodextrin [MβCD]
effect on release of Ca2+ from cell stores (PAF) ([1]; PAF 100 nM): no effect whatsoever
effect on PAF-initiated Ca2+ entry after cholesterol sequestration ([1]; PAF 100 nM, MBCD 10 mM 10 minutes): blocked
change of cholesterol in raft fractions versus higher density fractions [2]: removed cholesterol from raft fractions
global TRPC1 protein expression in whole cell lysates [3]: No differences in global TRPC1 protein expression
effect on fMLP-linked Ca2+ entry responses [4]: suppressed
effect of cholesterol depletion on fMLP/Tg RB [6]: inhibited RB; also recorded: clear suppression of RB; also recorded: markedly suppressed RB responses
effect of cholesterol depletion on fMLP/Tg RB ([6]; listed as MBCD): blocks RB; also recorded: attenuated
effect of MβCD on patient PMN Ca2+ entry responses to S1P ([7]; injured patients' PMN): further suppressed
effect of raft disruption on PMN calcium entry responses to S1P ([7]; n=3): completely blocks calcium entry
effect of raft disruption on PMN calcium entry responses to S1P ([7]; n=3, listed as MBCD): completely blocked
effect on TG initiated Ca2+ entry [9]: markedly inhibited

Compound: Oc1ccc(Nc2nc(-c3ccc(Cl)cc3)cs2)cc1 [SKI-2]
effect of SphK inhibition on fMLP/Tg induced RB ([6]; 30 uM, n=4): blocked fMLP/Tg induced RB down to background levels
effect on SOCE initiated by fMLP and Tg ([10]; fMLP 100 nM, Tg 1 uM): inhibited; also recorded: suppressing SOCE

Compound: C=C1[C@@H](C)[C@H]2[C@H](Cc3ccccc3)NC(=O)[C@]23[C@H](OC(C)=O)/C=C/[C@@](C)(O)C(=O)[C@@H](C)C/C=C/[C@H]3[C@@H]1O [CytoD, Cytochalasin D]
effect on cholesterol mediated Ca2+ influx (actin reorganization) [5]: reversed the inhibition

Compound: CCCCCCCCCCCCC/C=C/[C@@H](O)[C@@H](N)COP(=O)(O)O [S1P, sphingosine 1-phosphate, reference compound]
ratio of cholesterol to protein / cholesterol concentration in the lowest density raft fractions [2]: increases in cholesterol concentration
ratio of cholesterol to protein / cholesterol concentration in the lowest density raft fractions ([2]; listed as SIP): even greater increases in cholesterol concentration
rescue of RB after SKI-2 inhibition ([6]; S1P 5 uM after SKI-2 30 uM): rescue of RB
restoration of RB by S1P after MβCD cholesterol depletion ([6]; n=4-6): restored RB to control levels
reversal of SKI-2 inhibition of SOCE by exogenous S1P ([10]; 5 M S1P, 30 μM SKI-2): totally reversed; also recorded: reverses 30 μM SKI-2 inhibition

IC50 ([5]; Neutrophil, human PMN, 3-4 experiments per condition, read-out: IC50 for block of cholesterol-mediated PMN calcium entry): ~30 µM
Compound: COc1ccc(CCCOC(Cn2ccnc2)c2ccc(OC)cc2)cc1 (centres unmarked) [SKF96365]
effect of calcium channel blocker on cholesterol-mediated PMN calcium entry ([5]; human PMN): inhibited
effect of calcium channel blocker on cholesterol-mediated PMN calcium entry ([5]; human PMN, listed as SKF): quantitatively inhibited
